Test: whitening of stained extracted teeth, color scored against a classical VITA shade guide
Conditions: for tooth whitening (color vs classical VITA shade guide): teeth left in solution overnight, all teeth
Description: To evaluate these solutions, a collection of extracted teeth was examined and selected for dark color stains ranging from light yellow to brown. These teeth were then categorized and scored for color by comparing to a classical VITA shade guide. Then half of the teeth were then placed in a fresh solution of 15% sodium dithionite in water with unadjusted pH. The second half were placed in the solution adjusted to above pH 10. All teeth became whiter after remaining in solution overnight, especially light yellow to yellow stained teeth.

Structure (SMILES): O=S([O-])S(=O)[O-].[Na+].[Na+] [sodium dithionite]
- tooth whitening of brown stained teeth (15% sodium dithionite in water (unadjusted pH or above pH 10), overnight, brown teeth, less effect than light yellow to yellow teeth): whitened significantly
- tooth whitening (color vs classical VITA shade guide) (15% sodium dithionite solution adjusted to above pH 10): became whiter
- tooth whitening (color vs classical VITA shade guide) (fresh solution of 15% sodium dithionite in water, unadjusted pH): became whiter

Source: patent publication US20230210732A1, “REDUCTIVE TEETH WHITENING UTILIZING SALTS OF DITHIONITE” (CAO Group, Inc., priority 2022, published 2023)
